Measured values: patent US20250179057A1, “MEK IMMUNE ONCOLOGY INHIBITORS AND THERAPEUTIC USES THEREOF” (Immuneering Corporation, priority 2022, published 2025)
“And” between values parts separate entries of the source, which are not always exact repeats. Equal values may be shown once.

What was measured:
[1] = test system: phospho-MEK in A549 cells; assay: Cell-based pMEK (pMEK:tMEK, CRAF bypass) in A549 cells; settings: 2 h, pMEK to total MEK normalized to DMSO control
Method: (§1) Materials and Methods: A549 or A375 cells were seeded in 6-well plates at an appropriate seeding density on day 0. On day 2 or 3, after checking the health and confluency of cells, the media was aspirated and replaced with 1 mL media containing a predetermined concentration of compound and incubated for 2 hours. After 2 hours, the media was aspirated, and the cells washed 2 times with cold PBS. Cells were lysed on ice, with 50 uL 1×CST lysis buffer +1 mM PMSF for 5 minutes. After 5 minutes, cells were removed using a scraper and transferred to cold 1.5 mL tubes, and centrifuged for 10 min, 4° C., 14,000×g. Supernatant was gently removed and snap frozen in liquid nitrogen. Protein concentration of the lysate was determined using Bradford Reagent (analyzed using SpectraMax M2E) and diluted to 1 mg/mL or pERK or 1.5 mg/mL for pMEK analysis. […] All dilutions were in Milk-free antibody diluent.
(§2) A549 or […] cells were treated in duplicate for two hours with compounds at varying concentrations. After two hours, the cells were lysed, snap frozen, and stored at −80° C. After storage, the lysate was quantified with the Bradford assay. Before the lysates were prepared to run on the Jess, the lysates were diluted to 1 mg/mL for pERK analysis and 1.5 mg/mL pMEK analysis using quantitative Western blotting. ERK and MEK phosphorylation levels were estimated by taking the ratio of phospho-protein to total protein and normalizing to the DMSO control.
as §2

[2] = test system: phospho-ERK in A549 (KRAS G12S) cells; assay: Cell-based pERK (pERK:tERK) in A549 cells; parameters: A549-pERK 10 uM, 2 h: unit not given here; settings: for A549-pERK (10 nM, 2 h): phospho- to total protein ratio normalized to DMSO control (Table 9); for A549-pERK 10 uM, 2 h: phospho- to total protein ratio normalized to DMSO control
Method: Media components, reagents and buffers for Western Blot: All cell culture media components were obtained from ThermoFisher Scientific. […] Laemmli sample loading 4× buffer (ThermoFisher Scientific, Cat No. NP0007). MOPS/SDS electrophoresis running buffer (GenScript, Cat No. M00138).
Subculture conditions: Adherent cells were grown to approximately 90% confluency, culture medium was aspirated and the cell layer was rinsed with PBS. […] Eight mL media was added, cells were spun down at 1000×g for 5 minutes. Cell pellet was re-suspended in 10 mL media and an appropriate volume was inoculated into a new culture flask.
Compound (drug) treatment: Cells were plated in a 6-well plate at a density of 250,000-300,000 cells/well in 3 mL media and incubated 37° C. in a humidified, 5% CO2 incubator. […] These solutions were added to the cells (3 uL/well), mixed by swirling the plate, and incubated at 37° C. in a humidified, 5% CO2 incubator for 2 hours.
Cell lysis and protein estimation: Cells were washed with PBS, and scraped in 50 μL of lysis buffer containing protease and phosphatase inhibitors. Cell lysates were stored at −20° C. Cell lysates were thawed and spun at 12,000 rpm for one minute, 3 ul of the supernatant was added to 500 μL of Coomassie blue reagent following by 500 μL of water. […] Protein standards were used (0-20 mg/mL) to calculate protein concentrations of test samples.
All samples were heated at 95° C. for 5 minutes, cooled to room temperature and spun down. […] After the run, gel was removed and protein transfer was done using iBlot for 7 minutes, as per manufacturer's recommendations. After the transfer, nitrocellulose membrane was incubated on a shaker in 5 mL of blocking buffer at room temperature for 1 hr. The blot was then incubated overnight on a shaker in 5 ml of blocking buffer containing 0.2% Tween-20 and primary antibody, at room temperature. Anti-phospho-STAT3 antibody was used at a dilution of 1:500, the other 3 primary antibodies were used at a dilution of 1:1000.
Next day, the blot was washed 3 times for 10 min each with 10 mL of TBST followed by incubation on a shaker in 5 ml of blocking buffer containing 0.2% Tween-20 and 0.5 ul of the IRDye labeled secondary antibodies, diluted 1:10000, at room temperature for 1 hr. The blot was then washed 3 times for 10 min each with 10 mL of TBST and dried between sheets of paper towels. Imaging was done using LICOR's Odyssey imaging system, quantitation was done using their software, Image Studio version 3.1.
as §1
They were grown in T75 flasks in DMEM containing 10% FBS and Pen-Strep. at 37° C. in a humidified, 5% CO2 incubator. The adherent cells were grown to about 90% confluency, culture medium was aspirated, and the cell layer was rinsed with PBS. […] Eight mL media was added, cells were spun down at 1000 g for 5 minutes. Cell pellet was re-suspended in 10 mL media and an appropriate volume was inoculated into a new culture flask. Cells were plated in a 6-well plate at a density of 250,000-300,000 cells/well in 3 mL media and incubated 37° C. in a humidified, 5% CO2 incubator.

| SMILES | A549-CRAF BP 100 nM, 2 h [1] | A549-pERK (10 nM, 2 h) [2] | A549-pERK 10 uM, 2 h [2] | pERK:tERK (10 nM 2 h A549) ([2]; Phospho-ERK Screen in A549 (KRAS G12S), head 10 nM 2 h, title 10 μM for 2 hours) |
| --- | --- | --- | --- | --- |
| C#CCNCc1c(Cc2cccc(NS(=O)(=O)NC)c2F)c(=O)oc2cc(OC(=O)N(C)C)ccc12 [Compound 14] | 59.1 | 64 | – | – |
| CNS(=O)(=O)Nc1cccc(Cc2c(CN3CCNCC3)c3cc(Cl)c(OC(=O)N(C)C)cc3oc2=O)c1F [Compound 21] | 47.9 (mean, n = 2) | 20.4 | – | – |
| CNS(=O)(=O)Nc1cccc(Cc2c(CNCC#N)c3ccc(OC(=O)N(C)C)cc3oc2=O)c1F [Compound 33] | 51.4 | 55.4 | – | – |
| CCN(CC)Cc1c(Cc2cccc(NS(=O)(=O)NC)c2F)c(=O)oc2cc(OC(=O)N(C)C)ccc12 [Compound 73] | 33.9 | 77.7 | – | – |
| CNS(=O)(=O)Nc1cccc(Cc2c(CN3CC(OC)C3)c3ccc(OC(=O)N(C)C)cc3oc2=O)c1F [Compound 74] | 59.2 | 75.3 | – | – |
| CNS(=O)(=O)Nc1cccc(Cc2c(CNCC(F)(F)F)c3ccc(OC(=O)N(C)C)cc3oc2=O)c1F [Compound 75] | 66.5 | – | – | – |
| CNS(=O)(=O)Nc1cccc(Cc2c(CN(C)CC(C)C)c3ccc(OC(=O)N(C)C)cc3oc2=O)c1F [Compound 78] | 64.2 | 78.6 | – | – |
| CNS(=O)(=O)Nc1cccc(Cc2c(CN(C)c3ccccc3)c3ccc(OC(=O)N(C)C)cc3oc2=O)c1F [Compound 79] | 45.2 and 64.9 | 49.4 | – | – |
| CNS(=O)(=O)Nc1cccc(Cc2c(CN(C)Cc3ccccc3)c3ccc(OC(=O)N(C)C)cc3oc2=O)c1F [Compound 80] | 56.1 | 56.4 | – | – |
| CCCN(C)Cc1c(Cc2cccc(NS(=O)(=O)NC)c2F)c(=O)oc2cc(OC(=O)N(C)C)ccc12 [Compound 81] | 78.3 | 57.6 | – | – |
| CNS(=O)(=O)Nc1cccc(Cc2c(CN(C)C3CC3)c3ccc(OC(=O)N(C)C)cc3oc2=O)c1F [Compound 82] | 72.3 | 64.9 | – | – |
| CNS(=O)(=O)Nc1cccc(Cc2c(CN(C)CC3CC3)c3ccc(OC(=O)N(C)C)cc3oc2=O)c1F [Compound 84] | 87.3 | 83.2 | – | – |
| CNS(=O)(=O)Nc1cccc(Cc2c(CN(C)C3CCC3)c3ccc(OC(=O)N(C)C)cc3oc2=O)c1F [Compound 86] | 53.2 | 96.4 | – | – |
| CNS(=O)(=O)Nc1cccc(Cc2c(CN(C)CC#N)c3ccc(OC(=O)N(C)C)cc3oc2=O)c1F [Compound 87] | 95.8 | 63.8 | – | – |
| CNS(=O)(=O)Nc1cccc(Cc2c(CN(C)CC3CCC3)c3ccc(OC(=O)N(C)C)cc3oc2=O)c1F [Compound 88] | 53.6 | 142 | – | – |
| CNS(=O)(=O)Nc1cccc(Cc2c(CNc3ccsc3)c3ccc(OC(=O)N(C)C)cc3oc2=O)c1F [Compound 90] | 71 | 72.4 | – | – |
| CNS(=O)(=O)Nc1cccc(Cc2c(CN3CCOCC3=O)c3ccc(OC(=O)N(C)C)cc3oc2=O)c1F [Compound 181] | – | 100 | 22.23 | – |
| CNS(=O)(=O)Nc1cccc(Cc2c(CCNCC3CC3)c3ccc(OC(=O)N(C)C)cc3oc2=O)c1F [Compound 186] | – | 80.1 | 0.74 | – |

| SMILES | A549-CRAF BP 100 nM, 2 h [1] | A549-pERK (10 nM, 2 h) [2] | A549-pERK 10 uM, 2 h [2] | pERK:tERK (10 nM 2 h A549) ([2]; Phospho-ERK Screen in A549 (KRAS G12S), head 10 nM 2 h, title 10 μM for 2 hours) |
| --- | --- | --- | --- | --- |
| CNS(=O)(=O)Nc1cccc(Cc2c(CNCC(=O)N3CCNCC3)c3ccc(OC(=O)N(C)C)cc3oc2=O)c1F [Compound 191] | – | 131 | 8.6 | – |
| CNS(=O)(=O)Nc1cccc(Cc2c(CNc3ccc(OC)nc3)c3ccc(OC(=O)N(C)C)cc3oc2=O)c1F [Compound 193] | – | 90.7 | – | – |
| CNS(=O)(=O)Nc1cccc(Cc2c(CC(=O)N3CCN(C)CC3)c3ccc(OC(=O)N(C)C)cc3oc2=O)c1F [Compound 195] | – | 113 | – | – |
| CNS(=O)(=O)Nc1cccc(Cc2c(CC(=O)N(C)C)c3ccc(OC(=O)N(C)C)cc3oc2=O)c1F [Compound 196] | – | 106 | – | – |
| CNS(=O)(=O)Nc1cccc(Cc2c(CC(=O)N(C)CC#N)c3ccc(OC(=O)N(C)C)cc3oc2=O)c1F [Compound 198] | – | 109 | – | – |
| CNS(=O)(=O)Nc1cccc(Cc2c(CC(=O)Nc3ccon3)c3ccc(OC(=O)N(C)C)cc3oc2=O)c1F [Compound 201] | – | 119 | – | – |
| CNS(=O)(=O)Nc1cccc(Cc2c(CC(=O)Nc3ccn[nH]3)c3ccc(OC(=O)N(C)C)cc3oc2=O)c1F [Compound 202] | – | 119 | – | – |
| CCC(=O)NCc1c(Cc2cccc(NS(=O)(=O)NC)c2F)c(=O)oc2cc(OC(=O)N(C)C)ccc12 [Compound 207] | – | 97.4 | 11.35 | – |
| CNS(=O)(=O)Nc1cccc(Cc2c(CNC(=O)C(C)C)c3ccc(OC(=O)N(C)C)cc3oc2=O)c1F [Compound 208] | – | 105 | 23.64 | – |
| CNS(=O)(=O)Nc1cccc(Cc2c(CNC(=O)c3c[nH]nn3)c3ccc(OC(=O)N(C)C)cc3oc2=O)c1F [Compound 211] | – | 121 | 70.75 | – |
| CNS(=O)(=O)Nc1cccc(Cc2c(CNC(=O)C(C)(C)O)c3ccc(OC(=O)N(C)C)cc3oc2=O)c1F [Compound 212] | – | 100 | 13.03 | – |
| CNS(=O)(=O)Nc1cccc(Cc2c(CNC(=O)c3nn[nH]n3)c3ccc(OC(=O)N(C)C)cc3oc2=O)c1F [Compound 213] | – | 100 | 70.14 | – |
| CNS(=O)(=O)Nc1cccc(Cc2c(CC(=O)N3CC(OC)C3)c3ccc(OC(=O)N(C)C)cc3oc2=O)c1F [Compound 216] | – | 89.5 | 4.51 | – |
| CNS(=O)(=O)Nc1cccc(Cc2c(CNCC(=O)N(C)CC#N)c3ccc(OC(=O)N(C)C)cc3oc2=O)c1F [Compound 217] | – | 96.7 | 11.2 | – |
| C#CCNC(=O)CNCc1c(Cc2cccc(NS(=O)(=O)NC)c2F)c(=O)oc2cc(OC(=O)N(C)C)ccc12 [Compound 218] | – | 113 | 9.46 | – |
| CNS(=O)(=O)Nc1cccc(Cc2c(CNCC(=O)N(C)c3ccccc3)c3ccc(OC(=O)N(C)C)cc3oc2=O)c1F [Compound 220] | – | 109 | 4.28 | – |
| CNS(=O)(=O)Nc1cccc(Cc2c(CNCC(=O)Nc3ccccc3)c3ccc(OC(=O)N(C)C)cc3oc2=O)c1F [Compound 223] | – | 119 | 3.04 | – |
| CCN(C)Cc1c(Cc2cccc(NS(=O)(=O)NC)c2F)c(=O)oc2cc(OC(=O)N(C)C)c(F)cc12 [Compound 261, 4-((ethyl(methyl)amino)methyl)-6-fluoro-3-(2-fluoro-3-((N-methylsulfamoyl)amino)benzyl)-2-oxo-2H-chromen-7-yl dimethylcarbamate] | – | – | – | 68 |
